Test results taken from patent publication US4216209A, “Tripeptide angiotensin converting enzyme inhibitors” (American Home Products Corporation, priority 1979, dated 1980).
Non-standard residues stand in square brackets, D forms with d. Residues, ends and D or L forms follow the SMILES beside them. Mpa = O=C(O)CCS

Test system: spontaneously hypertensive rat (SHR)
Test: Antihypertensive test in conscious spontaneously hypertensive rats: arterial BP and pressor/depressor responses to i.v. angiotensin I and bradykinin after oral dosing
Assay type: in vivo
Conditions: male SHR, 50 mg/kg of body weight
Excerpt: Male SHR of the Okamoto-Aoki strain (purchased from Charles River Lakeview, Boston, Mass.) ranging in weight between 280 and 370 g are anesthetized with diethyl ether. Their left femoral arteries and veins are cannulated with polyethylene tubing of the appropriate size. Each animal is then placed in a rubber mesh jacket which is secured with four towel clamps. The animal is suspended via the towel clamps from a bar and allowed to recover from the anesthesia. The arterial cannula is connected to a Statham pressure transducer (Model P23, Gould Statham Instruments, Hato Rey, Porto Rico) which, in turn, is attached to a polygraph for recording arterial blood pressure (BP) and pulse rate.
When the BP has stabilized, the intravenous injection of the agonists, angiotensin I (AI) or bradykinin (B) is initiated. Each of the agonists is prepared daily from refrigerated stock solution (using distilled water as the diluent), and injected in a volume of 1 ml/kg (using physiological saline as the diluent) at the following doses: AI, 0.125 μg/kg and B, 5 μg/kg.
Enough time is allowed for the BP to return to preinjection levels before the next agonist is given. A dose of the compound to be tested is given orally seven to ten minutes after the injection of the last agonist. Four rats are used and the test compound is given by gastric gavage in a volume of 5 ml/kg of body weight. Heart rate and BP are measured at 5, 10, 15, 30, 45 and 60 minutes and at hourly intervals thereafter for a period of at least four hours after drug administration. At one and two hours after the test compound has been given, AI and B are injected again at the same concentration and in the same order as during the control period.

SMILES: CC(C)C[C@H](NC(=O)[C@H](Cc1c[nH]cn1)NC(=O)[C@@H]1CCCN1C(=O)CCS)C(=O)O [N-[N-[1-(3-Mercapto-1-oxopropyl)prolyl]histidyl]leucine] ([Mpa]PHL-OH)
- decrease in mean arterial BP (oral (gastric gavage), measured two hours after administration): 8%
- reduction in angiotensin I response on BP (oral, angiotensin I 0.125 μg/kg i.v.): 61%
- potentiation of bradykinin response (oral, bradykinin 5 μg/kg i.v.): 564%
